Test results from patent publication US8153784B2, “Imaging of enzyme activity” (The General Hospital Corporation, priority 2004, dated 2012).
Values belong to the compound of their own block, whether it stands above or below them.

Experiments:
HRP = target: T1, HRP (Armoracia rusticana, UniProt P00433); assay: HRP effect over T1, well plate with different HRP amounts; type: biochemical, horseradish; conditions: for lowest enzyme activity level with detectable decrease in T1 / decrease in T1: 0.5 mM; for T1: C = 0.5 mM
T1 construct: purchased Sigma
T1 sequence (P00433 31-338): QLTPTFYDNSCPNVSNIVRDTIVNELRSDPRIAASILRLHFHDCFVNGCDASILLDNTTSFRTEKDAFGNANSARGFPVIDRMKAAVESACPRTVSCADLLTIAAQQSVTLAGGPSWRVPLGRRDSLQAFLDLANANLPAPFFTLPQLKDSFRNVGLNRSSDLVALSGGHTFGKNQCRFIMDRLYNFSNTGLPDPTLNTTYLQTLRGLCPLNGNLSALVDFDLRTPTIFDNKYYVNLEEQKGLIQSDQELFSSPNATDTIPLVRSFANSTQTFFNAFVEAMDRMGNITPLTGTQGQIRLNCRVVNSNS
Protocol: MR imaging was performed on a 1.5 T GE Excite whole body MR scanner using a 3 inch surface coil. T1-weighted images were obtained using a spin echo sequence with TR=500 ms, TE=11 ms, NEX=4.
To estimate the detection limit of these sensor substrates, a new well plate layout containing a fixed concentration of 1Gd^3+ (0.5 mM, row b1) and 2Gd^3+ (0.5 mM, row b2) supplemented with different HRP amounts (from left to right: 4, 0.4, 0.04, 0.004 U) was imaged (FIG. 10B). The use of 4 U/mL of enzyme yielded a decrease in T1 by 50 and 25% for compounds 1Gd^3+ and 2Gd^3+, respectively. Detectable decrease could be seen at enzyme specific activity levels as low as 0.04 U/mL. In this case the decrease was measured to be 15% for compound 1Gd^3+ and 12% for compound 2Gd^3+.

[1] = target: T2, horseradish peroxidase (HRP) (Armoracia rusticana, UniProt P00433); assay: HRP-mediated oligomerization of 1Gd^3+ and 2Gd^3+: relaxivity, MALDI-MS; type: biochemical; set-up: purchased Sigma; conditions: for increase in relaxivity in the presence of peroxidase: 96-well plate image, 4 units HRP, DPBS; for increase in [r1p]: 0.47T and 40° C.
T2 sequence (P00433 31-338): T1 sequence (P00433 31-338)
Protocol: Relaxation times at 0.47 T was obtained on a Bruker NMS-120 Minispec spectrometer using an inversion recovery sequence, with a TR=5T1, and 15 TI points evenly spaced up to 5T1.
Relaxation times at 1.5 T was measured on a 1.5 T GE Excite MR scanner utilizing an inversion recovery sequences with TR=2000 ms, TI=50, 75, 100, 150, 200, 250, 300, 350, 400, 500, 625, 750, 1000 ms. A fixed-size region of interest was drawn to obtain the signal intensity of the samples.
The data at 0.47 T and 1.5 T were fitted to the equation Ix=I0*(1−2e^[…]) to obtain T1, where I is the signal obtained at a certain time point TI, with I0 (total signal or magnetization) and T1 being fitted values.
Horseradish peroxidase was purchased from Sigma as a lyophilized powder that was dissolved in PBS buffer (4 mg/mL) and its activity was measured using substantially the same the methods described by Klebanoff, S. J.; Waltersdorph, A. M.; Rosen, H. Meth Enzymol. 1984 Vol. 105, p 399-403.
Oligomerization of compounds 1Gd^3+ and 2Gd^3+ was achieved by incubating the desired solution (0.5 mL) of monomer with an excess of H2O2 3% (2 μL) and HRP (1 μg≈4 Units) for 1 hour at 40° C. Both T1 and T2 were measured at two different field strengths: 0.47T and 1.5T, this last one using a clinical magnet (1.5 T Signa, GE).
The relaxivities of various polymerized products were measured using a minimum of four different gadolinium complex concentrations ranging from 2.5 mM to 0.01 mM. Horseradish peroxidase (HRP) was used in the proof-of-the-principle experiments. As used herein, the descriptors 1Gd^3+ and 2Gd^3+ refer to Gd^3+-chelated compounds 1 and 2, respectively. The synthesis of 1Gd^3+ and 2Gd^3+ are described in the Examples.

MPO = target: T3, MPO (Homo sapiens, UniProt P05164); assay: Matrigel tissue model containing MPO, MR imaging at 1.5 T; type: biochemical
T3 construct: purchased BioDesign Inc
Protocol: Standard 96-well plates were prepared and imaged on a 1.5 T whole body clinical General Electric Signa MRI scanner utilizing a standard 3 inch surface coil. Inversion recovery sequences were used to measure T1 relaxation and spin echo sequences were utilized to measure T2 relaxation. T2 weighted images were obtained with TR=5000 ms and TE=100 ms with a fast spin echo sequence. T1 weighted images were obtained with spin echo sequences with the following parameters: TR=100, 200, 350, or 500, TE=11. For the Matrigel™ experiments, a relatively T2 weighted image was obtained at TR=300 ms and TE=200 ms. Single-exponential models were used to obtain T1 and T2. The relaxivities were computed by normalizing relaxation rates to the concentration of gadolinium in each sample, obtained by inductive coupled plasma (ICP) analysis performed by Galbraith Laboratories.
We also designed a tissue model system with Matrigel™ to confirm that the substrates can delineate tissues containing MPO. Substrate was added on top of Matrigel™ containing MPO, and imaged at 1.5 T one hour after sample preparation (to ensure substrate conversion), and at 24 hours after sample preparation. Utilizing this tissue model system, and using glucose/glucose oxidase as the hydrogen peroxide generating system (peroxide is released by neutrophils in vivo), we observed an MPO-specific change in the MR signal (see FIG. 8) that is visible on T1-weighted, T2-weighted, and inversion recovery images, at 1 hour after sample preparation. The changes continued to increase over time, and at 24 hours, there is a 30% increase in the longitudinal relaxation rate (5.3 s^−1 to 6.9 s^−1) and a 20% increase in the transverse relaxation rate (8.8 s^−1 to 10.6 s^−1). […] No such change was identified in control systems where MPO was not present (not shown) or glucose oxidase was not present (see the first cell in FIG. 8).

plasma proteins = assay: Substrate binding to plasma components (Biospin P-6 elution with 111In tracer); type: in vitro ADME; conditions: human plasma; eluting experiments
Protocol: The follow experiments were performed to determine the effect of MPO-activated substrate oligomerization with plasma proteins to form larger aggregate. Human plasma was extracted from healthy donors by the use of Polymorphprep (Accurate Chemicals) and centrifugation according to the manufacturer's instructions. Aliquots of 3 mM solution of bis-5-HT-DTPA(Gd) was mixed with aliquots of ^111In-bis-5-HT-DTPA as a tracer, with or without human plasma and with and without MPO/H2O2. […] Radioactivity retained in the columns and the eluted material were counted separately in 1480 Wizard gamma counter (Perkin-Elmer) and the fraction of radioactivity bound to proteins was calculated (n=3 independent experiments).

[2] = Matrigel/substrate interface, at 24 hours

T3 sequence (P05164 279-745 limits assumed): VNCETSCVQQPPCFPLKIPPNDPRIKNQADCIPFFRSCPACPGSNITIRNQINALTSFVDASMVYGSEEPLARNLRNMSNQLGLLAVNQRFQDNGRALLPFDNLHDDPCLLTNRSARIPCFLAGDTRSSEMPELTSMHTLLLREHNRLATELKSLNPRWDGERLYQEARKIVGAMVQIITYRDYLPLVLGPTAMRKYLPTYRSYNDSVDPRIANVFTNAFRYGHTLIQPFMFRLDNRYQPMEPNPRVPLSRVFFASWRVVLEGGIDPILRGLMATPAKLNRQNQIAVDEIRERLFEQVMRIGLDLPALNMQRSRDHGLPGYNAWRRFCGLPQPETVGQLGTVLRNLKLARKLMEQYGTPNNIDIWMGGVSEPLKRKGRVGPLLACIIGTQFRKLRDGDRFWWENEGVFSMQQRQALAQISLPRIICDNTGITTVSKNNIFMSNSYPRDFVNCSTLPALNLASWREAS
T3 sequence (P05164 165-273 limits assumed): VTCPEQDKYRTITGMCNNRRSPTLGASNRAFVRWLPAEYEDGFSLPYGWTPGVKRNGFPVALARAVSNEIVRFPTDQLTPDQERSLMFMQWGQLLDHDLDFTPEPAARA

Compound: O=C([O-])CN(CCN(CC(=O)[O-])CC(=O)NCCc1ccc(O)cc1)CCN(CC(=O)[O-])CC(=O)NCCc1ccc(O)cc1.[Gd+3] [1Gd^3+]
lowest enzyme activity level with detectable decrease in T1 (HRP): 0.04 U/mL
decrease in T1 (HRP; 0.04 U/mL of enzyme): 15%
decrease in T1 (HRP; 4 U/mL of enzyme): 50%
T1 (HRP; HRP 0 U): 316 ms
T1 (HRP; HRP 4 10-1 U): 229 ms
T1 (HRP; HRP 4 10-2 U): 274 ms
T1 (HRP; HRP 4 10-3 U): 321 ms
T1 (HRP; HRP 4 U): 211 ms
increase in relaxivity in the presence of peroxidase [1]: 70%
increase in [r1p] ([1]; HRP): 3.7 fold
increase in relaxivity ([1]; HRP, 1.5T clinical MRI unit at 25°): 1.7 fold

increase in the longitudinal relaxation rate (MPO; [2]): 30%
increase in the transverse relaxation rate (MPO; [2]): 20%
longitudinal relaxation rate (MPO; at 24 hours): 6.9 s⁻¹
transverse relaxation rate (MPO; at 24 hours): 10.6 s⁻¹
longitudinal relaxation rate (MPO; starting value): 5.3 s⁻¹
transverse relaxation rate (MPO; starting value): 8.8 s⁻¹
Compound: CC(C(=O)NCC(=O)NCCc1c[nH]c2ccc(O)cc12)N1CCN(CC(=O)[O-])CCN(CC(=O)[O-])CCN(CC(=O)[O-])CC1.[Gd+3] (stereo not shown) [5-HT-DOTA(Gd), Glycylmethyl DOTA(Gd) 5-Hydroxytryptamide]

Compound: O=C([O-])CN(CCN(CC(=O)[O-])CC(=O)NCCc1c[nH]c2ccc(O)cc12)CCN(CC(=O)[O-])CC(=O)NCCc1c[nH]c2ccc(O)cc12.[Gd+3] [2Gd^3+]
binding of MPO-activated oligomers to plasma proteins compared to the substrate itself (plasma proteins): over 3 fold
lowest enzyme activity level with detectable decrease in T1 (HRP): 0.04 U/mL
decrease in T1 (HRP; 0.04 U/mL of enzyme): 12%
decrease in T1 (HRP; 4 U/mL of enzyme): 25%
T1 (HRP; HRP 0 U): 339 ms
T1 (HRP; HRP 4 10-1 U): 278 ms
T1 (HRP; HRP 4 10-2 U): 303 ms
T1 (HRP; HRP 4 10-3 U): 331 ms
T1 (HRP; HRP 4 U): 271 ms
increase in relaxivity in the presence of peroxidase [1]: 30%
increase in [r1p] ([1]; HRP): 2.4 fold
increase in relaxivity ([1]; HRP, 1.5T, 25°, concentrations below 0.5 mM used for fitting): 1.4 fold
minimum increase in relaxivity ([1]; HRP, 1.5T, 25°, predicted from the obtained data): ≥ 30%
minimum relaxivity increase ([1]; pH=7.4 (PBS buffer), 0.47T, 'in an embodiment', enzyme not stated): ≥ 40%
